Data from PMC317295 (BMC Pharmacology, 2003).

Target: β2-adrenergic receptor (β2AR) (Homo sapiens, UniProt P07550)
Assay: radioligand saturation binding on membranes

Chain of β2-adrenergic receptor (β2AR) (P07550 whole entry): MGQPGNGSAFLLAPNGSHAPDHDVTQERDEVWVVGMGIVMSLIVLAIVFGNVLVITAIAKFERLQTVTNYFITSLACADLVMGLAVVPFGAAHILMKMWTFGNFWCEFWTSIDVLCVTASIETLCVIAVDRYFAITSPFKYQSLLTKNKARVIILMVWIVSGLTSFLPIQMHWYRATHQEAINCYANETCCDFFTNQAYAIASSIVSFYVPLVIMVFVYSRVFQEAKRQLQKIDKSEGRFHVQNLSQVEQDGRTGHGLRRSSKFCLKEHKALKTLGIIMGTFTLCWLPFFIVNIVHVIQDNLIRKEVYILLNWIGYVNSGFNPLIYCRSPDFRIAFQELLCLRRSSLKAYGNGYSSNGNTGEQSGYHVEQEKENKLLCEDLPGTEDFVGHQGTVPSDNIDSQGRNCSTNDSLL

SMILES: CCCc1ccccc1OCC(O)CNC(C)C (stereo not shown) [[3H]dihydroalprenolol]
- Kd: 0.42 ± 0.1 nM
